Consider 20 compounds from US10167292B2, “Benzodiazepines as bromodomain inhibitors” (Catalyst Therapeutics Pty Ltd, priority 2015, dated 2019).

In assay [1] the target is BRD-3 (Domain 1) (Homo sapiens (Human), UniProt Q15059). Description: AlphaScreen BRD binding assay, BRD-3 (Domain 1). The settings on record: acetyl-histone H4 peptide 2.5 nM, protein 80 nM. As for the experimental part:
(§1) Biological Characterization Assay Conditions Binding Assay
BRD binding and inhibition was assessed by measuring the interaction of biotinylated acetyl-histone H4 peptide (Anaspec #64989) with the BRD target protein utilising AlphaScreen® technology (Perkin Elmer). In a white 384-well low volume plate (Greiner #784076), 100 nL of compound series in DMSO (0.5% final concentration) was added to the BRD target protein (80 nM final). After 30 min incubation at RT, H4 peptide was added to a final concentration of 2.5 nM. AlphaScreen streptavidin donor beads and AlphaScreen nickel chelate acceptor beads were added to a final concentration of 10 ug/mL each and allowed to incubate in a darkened environment for 1 h at RT. Plates were read on an EnVision plate reader (Perkin Elmer) and IC50's calculated using a four parameter non-linear curve fit.
These conditions are identical for all BRDs screened except BRD2D2 which uses 160 nM protein and 1.25 nM peptide.

For assay [2], the target named is BRD-4 (Domain 1) (Homo sapiens (Human), UniProt O60885). Description: AlphaScreen BRD binding assay, BRD-4 (Domain 1). The settings on record: acetyl-histone H4 peptide 2.5 nM, protein 80 nM. On the procedure:
as §1
(§2) AlphaScreen streptavidin donor beads and AlphaScreen nickel chelate acceptor beads were added to a final concentration of 10 ug/mL each and allowed to incubate in a darkened environment for 1 h at RT. Plates were read on an EnVision plate reader (Perkin Elmer) and IC50's calculated using a four parameter non-linear curve fit.

Assay [3] concerns the target BRD-4 (Domain 2) (Homo sapiens (Human), UniProt O60885). Kind of assay: AlphaScreen BRD binding assay, BRD-4 (Domain 2). The settings on record: acetyl-histone H4 peptide 2.5 nM, protein 80 nM. On the procedure: as §1, §2
(In Alpha technology, singlet oxygen from a donor bead excites a nearby acceptor bead.)

In assay [4] the test system is HL-60. Description: Cell proliferation assay (CellTiter-Glo), HL-60. Format: cell-based. The settings on record: Homo sapiens, HL-60 cells, 72 h. On the procedure: The cells were prepared in the required fashion (suspension or adherent). The cells were initially washed once in the culture medium that they would be finally treated in. Following this 10 ml of the test medium was added and the cells. The mixture was pipetted gently several times.
The cells were counted and then the volume was spun down to the volume necessary for the total number of cells needed. The cells were then resuspended in the appropriate test medium to the desired concentration. In general, the final concentration of non-adherent cells was 2×10^5 cells/ml i.e. 10,000 cells per 50 μ1. Once the desired concentration had been reached, 50 µl of the cells were added to the appropriate wells and the cells were incubated for 72 h at 37° C.
CellTiter-Glo Luminescent Assay (Kit G7571—See Promega's Instruction Manual for Additional Details):
Both reagents were pre-warmed to RT. The buffer was thawed in a 37° C. water bath until it had just completely thawed. It was then left on a bench at RT for at least 30 min.
Following this the substrate and buffer were mixed together. To ensure that the substrate was dissolved, the mixture was inverted several times.
The cell culture plates were removed from the incubator and were then allowed to adjust to RT for at least 30 min.
Afterwards 40 μL of the reagent was added to 100 μL of the culture medium. […] The plates were then incubated for 10 min on the bench. The luminescence could then be read using a luminescence plate reader.
(In general: ATP-based viability assays read luminescence as a measure of living cells.)

Assay [5] addresses BRD-2 (Domain 1) (Homo sapiens (Human), UniProt P25440). Kind of assay: AlphaScreen BRD binding assay, BRD-2 (Domain 1). The settings on record: acetyl-histone H4 peptide 2.5 nM, protein 80 nM. As for the experimental part:
as §1, §2

The target in assay [6] is BRD-2 (Domain 2) (Homo sapiens (Human), UniProt P25440). Kind of assay: AlphaScreen BRD binding assay, BRD-2 (Domain 2). The settings on record: 160 nM protein and 1.25 nM peptide. On the procedure:
as §1, §2

Sequence of BRD-2 (Domain 2) (P25440 344-453): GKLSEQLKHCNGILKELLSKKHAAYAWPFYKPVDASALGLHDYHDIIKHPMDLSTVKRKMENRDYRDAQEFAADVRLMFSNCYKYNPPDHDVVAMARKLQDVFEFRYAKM
Sequence of BRD-3 (Domain 1) (Q15059 34-140): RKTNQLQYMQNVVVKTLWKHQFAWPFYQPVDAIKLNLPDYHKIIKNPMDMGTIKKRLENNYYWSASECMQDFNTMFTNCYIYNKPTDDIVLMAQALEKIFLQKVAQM
Sequence of BRD-2 (Domain 1) (P25440 74-180): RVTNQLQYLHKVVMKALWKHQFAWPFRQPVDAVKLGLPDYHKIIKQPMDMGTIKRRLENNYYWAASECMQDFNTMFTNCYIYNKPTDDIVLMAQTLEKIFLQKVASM

`Cc1nnn2c1-c1ccc(C(=O)NC(C)c3ccc(F)cc3)cc1N(c1ccc(Cl)cc1)CC2` (stereo in doubt) [Example 33, 7-(4-chlorophenyl)-N—((R)-1-(4-fluorophenyl)ethyl)-1-methyl-6,7-dihydro-5H-benzo[f][1,2,3]triazolo[1,5-d][1,4]diazepine-9-carboxamide]: the IC50 (as a rule, the concentration at which inhibition is half-maximal) in assay [1] was less than 100 nM.
`Cc1nnn2c1-c1ccccc1N(c1ccccc1)CC2` [Example 5, 1-methyl-7-phenyl-6,7-dihydro-5H-benzo[f][1,2,3]triazolo[1,5-d][1,4]diazepine]: the IC50 in assay [2] and in assay [3] was less than 100 nM throughout.
In assay [4], `Cc1nnn2c1-c1ccccc1N(c1ccc(Cl)cc1)CC2` [Example 11, 7-(4-chlorophenyl)-1-methyl-6,7-dihydro-5H-benzo[f][1,2,3]triazolo[1,5-d][1,4]diazepine] had an IC50 of 1000 to 5000 nM.
Same read-out and setting: the same measure for `Cc1nnn2c1-c1ccc(-c3cnc(N)nc3)cc1N(c1ccc(Cl)cc1)CC2` [Example 12, 5-(7-(4-chlorophenyl)-1-methyl-6,7-dihydro-5H-benzo[f][1,2,3]triazolo[1,5-d][1,4]diazepin-9-yl)pyrimidin-2-amine]: less than 1000 nM.
On to `Cc1nnn2c1-c1ccccc1N(c1ccc(Cl)cc1)C[C@@H]2C` [Example 13, 7-(4-chlorophenyl)-1,5-dimethyl-6,7-dihydro-5H-benzo[f][1,2,3]triazolo[1,5-d][1,4]diazepine], for which the IC50 was less than 100 nM in assay [5], less than 100 nM in assay [6] and less than 1000 nM in assay [4].
As to `Cc1nnn2c1-c1ccc(Br)cc1N(c1ccc(Cl)cc1)CC2C` (centres unmarked) [Example 14, 9-Bromo-7-(4-chlorophenyl)-1,5-dimethyl-6,7-dihydro-5H-benzo[f][1,2,3]triazolo[1,5-d][1,4]diazepine], the IC50 in assay [4] is less than 1000 nM.
On to `Cc1nnn2c1-c1ccccc1N(c1ccc(Cl)cc1)C[C@H]2C` [Example 16, (5R)-7-(4-chlorophenyl)-1,5-dimethyl-6,7-dihydro-5H-benzo[f][1,2,3]triazolo[1,5-d][1,4]diazepine], for which the results for the IC50 in assay [5], in assay [6] and in assay [4] were less than 100 nM, less than 100 nM and less than 1000 nM, respectively.
Take `Cc1nnn2c1-c1ccc(Cn3cccn3)cc1N(c1ccc(Cl)cc1)CC2` [Example 20, 9-((1H-pyrazol-1-yl)methyl)-7-(4-chlorophenyl)-1-methyl-6,7-dihydro-5H-benzo[f][1,2,3]triazolo[1,5-d][1,4]diazepine]: the IC50 in assay [1], in assay [2] and in assay [3] was less than 100 nM each time.
Take `Cc1nnn2c1-c1ccccc1N(c1ccc(Cl)cc1)CC2CCO` (centres unmarked) [Example 21, 2-(7-(4-chlorophenyl)-1-methyl-6,7-dihydro-5H-benzo[f][1,2,3]triazolo[1,5-d][1,4]diazepin-5-yl)ethanol]: the IC50 was 100 to 1000 nM in assay [5]; less than 100 nM in assay [6]; less than 100 nM in assay [1]; less than 100 nM in assay [2]; less than 100 nM in assay [3]; 1000 to 5000 nM in assay [4].
Turning to `Cc1nnn2c1-c1ccccc1N(c1cccc(Br)c1)CC2` [Example 22, 7-(3-Bromophenyl)-1-methyl-6,7-dihydro-5H-benzo[f][1,2,3]triazolo[1,5-d][1,4]diazepine], the IC50 is 100 to 1000 nM in assay [5]; less than 100 nM in assay [6]; less than 100 nM in assay [1]; less than 100 nM in assay [2]; less than 100 nM in assay [3]; 1000 to 5000 nM in assay [4].
With `C=Cc1cccc(N2CCn3nnc(C)c3-c3ccccc32)c1` [Example 23, 1-Methyl-7-(3-vinylphenyl)-6,7-dihydro-5H-benzo[f][1,2,3]triazolo[1,5-d][1,4]diazepine], the IC50 in assay [5] is 100 to 1000 nM; in assay [6], less than 100 nM; in assay [1], less than 100 nM; in assay [2] it was less than 100 nM; in assay [3], less than 100 nM; in assay [4] it was 1000 to 5000 nM.
As to `Cc1nnn2c1-c1ccccc1N(c1cccc(C(O)CO)c1)CC2` (centres unmarked) [Example 24, 1-(3-(1-methyl-5H-benzo[f][1,2,3]triazolo[1,5-d][1,4]diazepin-7(6H)-yl)phenyl)ethane-1,2-diol], the IC50 in assay [5] was less than 100 nM; in assay [6], less than 100 nM; in assay [1] it was less than 100 nM; in assay [2] it was less than 100 nM; in assay [3] it was less than 100 nM; in assay [4] it was 1000 to 5000 nM.
Regarding `FC(F)c1nnn2c1-c1ccccc1N(c1ccc(Cl)cc1)CC2` [Example 29, 7-(4-chlorophenyl)-1-(difluoromethyl)-6,7-dihydro-5H-benzo[f][1,2,3]triazolo[1,5-d][1,4]diazepine], the IC50 is greater than 1000 nM in assay [5], 100 to 1000 nM in assay [6], 100 to 1000 nM in assay [2] and 100 to 1000 nM in assay [3].
Regarding `Cc1nnn2c1-c1ccc(C(=O)NCc3ccccc3)cc1N(c1ccc(Cl)cc1)CC2` [Example 37, N-benzyl-7-(4-chlorophenyl)-1-methyl-6,7-dihydro-5H-benzo[f][1,2,3]triazolo[1,5-d][1,4]diazepine-9-carboxamide], the IC50 in assay [2] and in assay [3] was less than 100 nM throughout.
As for `Cc1nnn2c1-c1ccc(C(=O)NC(c3ccccc3)c3ccccc3)cc1N(c1ccc(Cl)cc1)CC2` [Example 38, N-benzhydryl-7-(4-chlorophenyl)-1-methyl-6,7-dihydro-5H-benzo[f][1,2,3]triazolo[1,5-d][1,4]diazepine-9-carboxamide], the IC50 is 100 to 1000 nM in assay [5], less than 100 nM in assay [6] and less than 100 nM in assay [1].
Turning to `Cc1nnn2c1-c1ccc(C(N)=O)cc1N(c1ccc(Cl)cc1)CC2` [Example 42, 7-(4-chlorophenyl)-1-methyl-6,7-dihydro-5H-benzo[f][1,2,3]triazolo[1,5-d][1,4]diazepine-9-carboxamide], the IC50 in assay [2] and in assay [3] was less than 100 nM each time.
As to `Cc1nnn2c1-c1ccc(C(=O)NO)cc1N(c1ccc(Cl)cc1)CC2` [Example 44, 7-(4-Chlorophenyl)-N-hydroxy-1-methyl-6,7-dihydro-5H-benzo[f][1,2,3]triazolo[1,5-d][1,4]diazepine-9-carboxamide], the IC50 in assay [5], in assay [6], in assay [2] and in assay [3] was less than 100 nM each time.
As to `Cc1nnn2c1-c1ccc(C#N)cc1N(c1ccc(Cl)cc1)CC2` [Example 47, 7-(4-chlorophenyl)-1-methyl-6,7-dihydro-5H-benzo[f][1,2,3]triazolo[1,5-d][1,4]diazepine-9-carbonitrile], the IC50 in assay [2] and in assay [3] was less than 100 nM in each case.
`CON(C)C(=O)c1ccc2c(c1)N(c1ccc(Cl)cc1)CCn1nnc(C)c1-2` [Example 48, 7-(4-Chlorophenyl)-N-methoxy-N, 1-dimethyl-6,7-dihydro-5H-benzo[f][1,2,3]triazolo[1,5-d][1,4]diazepine-9-carboxamide]: the IC50 in assay [5], in assay [6], in assay [2] and in assay [3] was less than 100 nM in each case.
As for `Cc1nnn2c1-c1ccc(C(O)C(F)(F)F)cc1N(c1ccc(Cl)cc1)CC2` (centres unmarked) [Example 50, 1-(7-(4-Chlorophenyl)-1-methyl-6,7-dihydro-5H-benzo[f][1,2,3]triazolo[1,5-d][1,4]diazepin-9-yl)-2,2,2-trifluoroethanol], the IC50 in assay [2] and in assay [3] was less than 100 nM in each case.
